Among the data in ChEMBL document CHEMBL5230103, “Hydroxamic acid hybrids as the potential anticancer agents: An Overview” (Eur J Med Chem, 2020) are IC50 values, retold here.

In brackets after ≈: the same amount, converted by molar mass.

The subject of one test is MCF7. Nature of the test: Cytotoxicity against human MCF7 cells assessed as inhibition of cell growth by MTT assay. Type of test: functional, cell-based.
Another test relates to HepG2. Nature of the test: Cytotoxicity against human HepG2 cells assessed as inhibition of cell growth by MTT assay. It counts as functional, cell-based. For orientation: Tetrazolium assays rely on reduction of a dye to a coloured formazan, in cell work by metabolically active cells.
For another test, the system named is HCT-116. Nature of the test: Cytotoxicity against human HCT-116 cells assessed as inhibition of cell growth by MTT assay. It counts as functional, cell-based.
Another test deals with Histone deacetylase. Description: Inhibition of HDAC (unknown origin). Type of test: protein assay, Homo sapiens.
Test [1] relates to PC-3. Nature of the test: Cytotoxicity against human PC-3 cells assessed as inhibition of cell growth by SRB assay. Type of test: functional, cell-based. A general note: Sulforhodamine B stains cellular protein and so reports cell mass.
The next test concerns MV4-11. Nature of the test: Cytotoxicity against human MV4-11 cells assessed as inhibition of cell growth by SRB assay. Type of test: functional, cell-based.
Test [2] has as its system PC-3. Description: Cytotoxicity against human PC-3 cells assessed as inhibition of cell growth by MTT assay. It counts as functional, cell-based.
Another test concerns SW-620. Description: Cytotoxicity against human SW620 cells assessed as inhibition of cell growth by MTT assay. It counts as functional, cell-based.
The next test deals with ASPC1. Description: Cytotoxicity against human ASPC1 cells assessed as inhibition of cell growth by MTT assay. It counts as functional, cell-based.
The next test concerns HL-60. Description: Antiproliferative activity against human HL-60 cells assessed as inhibition of cell growth by MTT assay. It counts as functional, cell-based.
A further test deals with Histone deacetylase 2 (Homo sapiens, UniProt Q92769). Description: Inhibition of HDAC2 (unknown origin).
Histone deacetylase 2, sequence (Q92769 whole entry): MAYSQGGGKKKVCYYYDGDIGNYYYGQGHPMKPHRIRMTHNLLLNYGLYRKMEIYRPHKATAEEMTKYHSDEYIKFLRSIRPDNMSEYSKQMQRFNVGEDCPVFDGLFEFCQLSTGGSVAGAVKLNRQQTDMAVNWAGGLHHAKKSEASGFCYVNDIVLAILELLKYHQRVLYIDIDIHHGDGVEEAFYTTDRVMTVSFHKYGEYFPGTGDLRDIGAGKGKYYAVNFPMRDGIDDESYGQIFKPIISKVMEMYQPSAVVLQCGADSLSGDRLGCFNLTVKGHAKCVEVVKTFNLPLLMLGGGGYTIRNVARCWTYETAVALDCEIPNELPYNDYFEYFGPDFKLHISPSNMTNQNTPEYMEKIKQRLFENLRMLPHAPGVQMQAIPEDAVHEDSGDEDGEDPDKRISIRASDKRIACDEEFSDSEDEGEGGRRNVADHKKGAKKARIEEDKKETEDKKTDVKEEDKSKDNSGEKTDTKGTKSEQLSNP

A word on the IC50: it is the point on the concentration scale where inhibition reaches its midpoint. Take `O=C(Cn1cnc2c(c1=O)C1CCCCC1S2)NCc1ccc(C(=O)NO)cc1` (configuration not stated): the IC50 in the test on MCF7, with HepG2 and with HCT-116 was 4860 nM in each case.
With `O=C(Cn1cnc2c(c1=O)C1CCCCC1S2)Nc1ccc(C(=O)NO)cc1` (configuration not stated), the IC50 in the test on MCF7, in the test with HepG2 and in the test on HCT-116 was 4860 nM throughout.
Turning to `CC(C)n1cnc2c(-c3ccc(COCCCCCCCC(=O)NO)cc3)nc(N3CCOCC3)nc21`, the IC50 came out at 278 nM against Histone deacetylase, 970 nM with PC-3 [1] and 970 nM in the test with MV4-11.
On to `CC(C)n1cnc2c(-c3cccc(OCCCCCCCC(=O)NO)c3)nc(N3CCOCC3)nc21`, for which the IC50 against Histone deacetylase was determined as 35 nM; in the test with PC-3 [1], 160 nM; with MV4-11, 160 nM.
As for `Cc1ccc(-c2nnc(NC(=O)CCCCCCC(=O)NO)s2)s1`, the IC50 in the test on MCF7, in the test with PC-3 [2], in the test with SW-620 and with ASPC1 was 880 nM each time.
Turning to `CC(C)n1cnc2c(-c3cccc(COCCCCC(=O)NO)c3)nc(N3CCOCC3)nc21`, the IC50 on Histone deacetylase was determined as 35 nM; in the test with PC-3 [1], 160 nM; in the test with MV4-11 it was 160 nM.
For `C[C@H]1[C@@H](NC(=O)CCCC(=O)NO)O[C@@H]2O[C@@]3(C)CC[C@H]4[C@H](C)CC[C@@H]1[C@@]24OO3`, the IC50 in the test with MCF7 worked out at 1.28 µg/mL; with HepG2 it was 1.28 µg/mL; in the test on HL-60, 1.28 µg/mL (≈ 3.1 µM).
For the compound `CC(C)n1cnc2c(-c3ccc(OCCCCC(=O)NO)cc3)nc(N3CCOCC3)nc21`, the IC50 was 278 nM on Histone deacetylase, 970 nM in the test with PC-3 [1] and 970 nM with MV4-11.
As for `C[C@H]1[C@@H](NC(=O)CCCCCCCC(=O)NO)O[C@@H]2O[C@@]3(C)CC[C@H]4[C@H](C)CC[C@@H]1[C@@]24OO3`, the IC50 in the test with MCF7 was found to be 1.28 µg/mL; with HepG2, 1.28 µg/mL; in the test with HL-60, 1.28 µg/mL (≈ 2.73 µM).
Turning to `CC(C)n1cnc2c(-c3ccc(COCCCCCCC(=O)NO)cc3)nc(N3CCOCC3)nc21`, the 50% inhibitory concentration (IC50) is 278 nM against Histone deacetylase, 970 nM in the test on PC-3 [1] and 970 nM in the test on MV4-11.
Take `CC(C)n1cnc2c(-c3cccc(OCC(=O)NO)c3)nc(N3CCOCC3)nc21`: the IC50 is 35 nM on Histone deacetylase, 160 nM in the test on PC-3 [1] and 160 nM with MV4-11.
On to `CC(C)n1cnc2c(-c3cccc(OCCCCCCC(=O)NO)c3)nc(N3CCOCC3)nc21`, for which the IC50 against Histone deacetylase stood at 35 nM; in the test with PC-3 [1], 160 nM; in the test on MV4-11, 160 nM.
For `O=C(COc1ccc(C(=O)/C=C/c2ccc(F)cc2)cc1)NO`, the IC50 in the test with MCF7, in the test with HepG2 and in the test on HCT-116 was 620 nM each time.
Consider `O=C(CCCCCCC(=O)Nc1nnc(-c2cccs2)s1)NO`, for which the IC50 with MCF7, with PC-3 [2], in the test on SW-620 and in the test on ASPC1 was 880 nM throughout.
For the compound `O=C(CCCn1cc(CN2C(=O)/C(=N\O)c3cc(Br)ccc32)nn1)NO`, half-maximal inhibition at Histone deacetylase 2 (IC50) was put at 910 nM.
For the compound `CC(C)n1cnc2c(-c3cccc(COCCCCCCC(=O)NO)c3)nc(N3CCOCC3)nc21`, the figures for the IC50 against Histone deacetylase, in the test with PC-3 [1] and with MV4-11 were 35 nM, 160 nM and 160 nM, respectively.
In the case of `CC(C)n1cnc2c(-c3cccc(OCCCCCC(=O)NO)c3)nc(N3CCOCC3)nc21`, the IC50 on Histone deacetylase was found to be 35 nM; with PC-3 [1], 160 nM; with MV4-11 it was 160 nM.
For `O=C(COc1ccc(C(=O)/C=C/c2ccccc2)cc1)NO`, the IC50 in the test with MCF7, in the test on HepG2 and in the test with HCT-116 was 620 nM each time.
Take `CC(C)n1cnc2c(-c3ccc(OCC(=O)NO)cc3)nc(N3CCOCC3)nc21`: the IC50 is 278 nM at Histone deacetylase, 970 nM with PC-3 [1] and 970 nM in the test on MV4-11.
Turning to `CC(C)n1cnc2c(-c3cccc(COCCCCCC(=O)NO)c3)nc(N3CCOCC3)nc21`, the IC50 at Histone deacetylase was determined as 35 nM; in the test with PC-3 [1] it was 160 nM; in the test with MV4-11, 160 nM.
For `CC(C)n1cnc2c(-c3ccc(OCCCCCCCC(=O)NO)cc3)nc(N3CCOCC3)nc21`, the IC50 on Histone deacetylase came to 278 nM; with PC-3 [1] it was 970 nM; in the test with MV4-11 it was 970 nM.
For the compound `COc1ccc(/C=C/C(=O)c2ccc(OCC(=O)NO)cc2)cc1`, the IC50 in the test on MCF7, in the test on HepG2 and in the test with HCT-116 was 620 nM throughout.
Consider `CC(C)n1cnc2c(-c3ccc(OCCCCCC(=O)NO)cc3)nc(N3CCOCC3)nc21`, for which the IC50 was 278 nM against Histone deacetylase, 970 nM with PC-3 [1] and 970 nM in the test with MV4-11.
Compound `O=C(CCCn1cc(CN2C(=O)/C(=N\O)c3cc(F)ccc32)nn1)NO` yielded an IC50 against Histone deacetylase 2 of 910 nM.
Turning to `CC(C)n1cnc2c(-c3ccc(COCCCCC(=O)NO)cc3)nc(N3CCOCC3)nc21`, the IC50 at Histone deacetylase was determined as 278 nM; in the test with PC-3 [1], 970 nM; in the test on MV4-11 it was 970 nM.
As to `O=C(/C=C/c1ccc(CN2C(=O)C3(OCCO3)c3ccccc32)cc1)NO`, the IC50 in the test with PC-3 [2], in the test on SW-620 and with ASPC1 was above 3050 nM in each case.
As for `O=C(CCCCCCC(=O)Nc1nnc(-c2ccc(Br)o2)s1)NO`, the IC50 in the test with MCF7, in the test with PC-3 [2], in the test on SW-620 and with ASPC1 was 880 nM throughout.
Turning to `CC(C)n1cnc2c(-c3ccc(OCCCCCCC(=O)NO)cc3)nc(N3CCOCC3)nc21`, the IC50 at Histone deacetylase came out at 278 nM; in the test on PC-3 [1] it was 970 nM; in the test on MV4-11, 970 nM.
In the case of `O=C(CCCCCCN1C(=O)C2(OCCO2)c2cccc(Cl)c21)NO`, the IC50 is 50 nM in the test on PC-3 [2], 30 nM against Histone deacetylase 2, 50 nM in the test with SW-620 and 50 nM in the test with ASPC1.
On to `O=C(CCCCCCC(=O)Nc1nnc(-c2ccco2)s1)NO`, for which the IC50 in the test with MCF7, in the test on PC-3 [2], in the test on SW-620 and in the test on ASPC1 was 880 nM in each case.
Regarding `Cc1ccc(-c2nnc(NC(=O)CCCCCCC(=O)NO)s2)o1`, the IC50 with MCF7, in the test on PC-3 [2], in the test on SW-620 and in the test with ASPC1 was 880 nM in each case.
On to `CC(C)n1cnc2c(-c3cccc(COCC(=O)NO)c3)nc(N3CCOCC3)nc21`, for which the IC50 amounted to 35 nM against Histone deacetylase, 160 nM with PC-3 [1] and 160 nM in the test on MV4-11.
Take `O=C(CCCCCCn1cnc2c(c1=O)C1CCCCC1S2)NO` (configuration not stated): the IC50 with MCF7, in the test on HepG2 and in the test with HCT-116 was 3320 nM each time.
Consider `CC(C)n1cnc2c(-c3cccc(COCCCCCCCC(=O)NO)c3)nc(N3CCOCC3)nc21`, for which the IC50 is 35 nM at Histone deacetylase, 160 nM in the test on PC-3 [1] and 160 nM in the test with MV4-11.
Consider `CC(C)n1cnc2c(-c3ccc(COCCCCCC(=O)NO)cc3)nc(N3CCOCC3)nc21`, for which the IC50 against Histone deacetylase was 278 nM; with PC-3 [1] it was 970 nM; in the test with MV4-11, 970 nM.
For `O=C(CCCCCCCn1cnc2c(c1=O)C1CCCCC1S2)NO` (configuration not stated), the half-maximal inhibitory concentration (IC50) in the test on MCF7, in the test with HepG2 and in the test with HCT-116 was 3320 nM throughout.
`COc1ccc2c(c1)C1(OCCO1)C(=O)N2CCCCCCC(=O)NO`: the IC50 in the test on PC-3 [2] came out at 50 nM; against Histone deacetylase 2, 30 nM; in the test with SW-620 it was 50 nM; in the test on ASPC1, 50 nM.
As for `CC(C)n1cnc2c(-c3ccc(COCC(=O)NO)cc3)nc(N3CCOCC3)nc21`, the IC50 is 278 nM against Histone deacetylase, 970 nM in the test on PC-3 [1] and 970 nM with MV4-11.
